Test results as given in US9150617B2, “Immunoregulatory peptides and methods of use” (13 Therapeutics, Inc., priority 2009, dated 2015).
Ends that are not written are not given here.

Legend:
[1] = test system: TNF-α secretion from RAW264.7 cells; assay: Inhibition of TNF-α secretion from RAW264.7 cells stimulated with CpG-ODN (ELISA); type: cell-based, murine; conditions: for activity vis-à-vis P13 (inhibition of TNF-α after stimulation of RAW264.7 cells with CpG): SAR, compared with P13; for Inhibition of TNF-α secretion (percent inhibition): 4 hours (Table 3)
Description: (§1) RAW264.7 (murine monocyte/macrophage cells (American Type Culture Collection) were cultured at 37° C. in a 5% CO2 humidified incubator and grown in DMEM (Invitrogen Life Technologies) supplemented with 10% (v/v) heat-inactivated FCS, 1.5 mM L-glutamine, 100 U/ml penicillin, and 100 μg/ml streptomycin.
(§2) RAW264.7 cells were plated at 1.5×10^5 cells/well −3×10^5 cells/well in 48-well plates. After 24 hours, the cells were incubated with peptides at various concentrations at room temperature in triplicate either before, simultaneous with, or after activation with various PAMPs for 18 hours. Cell-free supernatants were analyzed for cytokines by ELISA, in quadruplicate. RAW264.7 cells were stimulated with either CpG-ODN (1 μg/ml or 1.25 μg/ml), LPS (about 1 ng/ml), Poly (I:C) (about 10 μg/ml), flagellin (about 5 ng/ml), or zymosan (about 10 μg/ml). Dose response curves were done with each PAMP to determine optimal stimulation concentration. For CpG-ODN stimulation, cells were incubated for 4 hours at 37° C., supernatants collected, and TNF-α measured by ELISA. Any cytokine involved in inflammatory disease mediated toll receptor signaling can be measured using similar assays.
The effect of several peptides on TNF-α secretion from RAW264.7 cells in response to stimulation by CpG-ODN was studied. Each peptide was initially tested at 3 concentrations, 37 μM, 22.2 μM, and 11.1 μM. […] The peptides were then tested at 11.1 μM, 7.4 μM, and 3.7 μM (Table 3). […] Cell viability was examined for each peptide at the concentrations tested for TNF-α inhibition.
(§3) Inhibition of TNF-α secretion by various T-peptides was examined. RAW264.7 cells were plated at 3×10^5 cells/well in 48-well plates. After 24 h the cells were incubated with peptide at various concentrations at room temperature in triplicate for 15 minutes and then stimulated with 1.25 ug/ml CpG-ODN or 1 ng/ml LPS. Cells were then incubated for 4 hours at 37° C., supernatants collected, and TNF-α measured by ELISA. Percent inhibition was calculated by comparing TNF-α secretion from cells incubated with peptide to control cells with no peptide treatment. The inhibition by peptides T3, T11, T21, T36, T37, T51 and T52 were compared to inhibition by an analogue of P13 having a sequence of nine arginine residues (SEQ ID NO: 379) at the C-terminus (P13-R^9; SEQ ID NO: 378). (Table 4).

[2] = test system: TNF-α secretion from RAW264.7 cells; assay: Inhibition of TNF-α secretion from RAW264.7 cells stimulated with LPS (ELISA); type: cell-based, murine; conditions: LPS Stimulation, 1 ng/ml LPS
Description: as §1, §2, §3

mouse middle ear = assay: Effects caused by peptide without added bacteria on mouse middle ear; type: in vivo; conditions: 10 μM, no bacteria, 3 days
Description: (§4) Induction of otitis media: BALB/c (Bagg albino) mice, about 8-12 weeks of age, are anesthetized with a subcutaneous injection of xylazine & ketamine (about 0.1 mg/30 gm body weight) and their ears examined under the operating microscope to assure they are free of infection or perforation. One group of animals is injected with PBS (Phospho-buffered saline) in one ear and with about 10 μM of a peptide of Table 1 in the opposite ear, to determine the effect of peptide without added bacteria. A second group of animals receive about 5.0 μl of PBS plus heat-inactivated S. pneumoniae (about 10^9 CFU/ml) in one ear and about 5.0 μl of peptide (about 10 μM) plus heat-inactivated S. pneumoniae (about 10^9 CFU/ml) in the opposite ear. Injections are done through the tympanic membrane. Animals are killed about 3 days after bacterial injection and tissue is histologically processed to assess middle ear disease. Inflammation is quantified by measuring 1) area of fluid present in the middle ear; 2) number of cells in middle ear fluid; and 3) thickness of the tympanic membrane (TM) taken at a point away from the injection site. Data are obtained from mice (n=18) injected with PBS alone for each of the histological parameters measured, to serve as a control group.
To determine the effect of peptide without added bacteria, animals are injected in one ear with PBS alone, and the other ear with about 10 μM peptide. Paired t-tests are done comparing the effect of PBS alone with the effect of peptide for each of the three histological parameters: 1) area of fluid present in the middle ear; 2) number of cells in middle ear fluid; and 3) thickness of the tympanic membrane. […]
Five mice were injected in one ear with PBS and in the opposite ear with 10 μM peptide P13. Three days later the animals were killed, and the middle ears embedded, sectioned, stained and evaluated for fluid area, infiltrating cell number, and thickness of the tympanic membrane. […]

[3] = test system: toll-like receptor-dependent signaling; assay: Cytokine secretion in response to TLR activation; type: cell-based
Description: as §2

[4] = test system: middle ear inflammation in BALB/c mice; assay: Middle ear inflammation, heat-inactivated S. pneumoniae plus peptide injected into the middle ear; type: in vivo, mouse; conditions: heat-inactivated S. pneumoniae into middle ears of BALB/c mice
Description: as §4, with “Injections are done through the tympanic membrane. Animals are killed about 3 days after bacterial injection and tissue is histologically processed to assess middle ear disease.” left out
At the end of the experimental treatment, mice are killed and tissues collected for histology. […] This enables all histologic embedding, sectioning, staining, and analysis to be done on the two sides simultaneously to reduce any impact of processing variables on the subsequent quantitative analyses. […]

[5] = test system: LPS-induced septic shock in mice; assay: Mouse model of LPS-induced septic shock; type: in vivo
Description: BALB/c mice are injected i.p. with PBS, LPS at about 100 μg/mouse/250 μl, or about 100 μg LPS plus various doses of peptides. Serum is collected at about 2 and about 6 hours after treatment and evaluated for the pro-inflammatory cytokines MIP-2 and TNF-α by ELISA, and for soluble ICAM-1.

[6] = test system: tympanic membrane of BALB/c mice; assay: Assay for crossing the tympanic membrane by FITC-labeled peptide; type: in vivo, mouse; conditions: 10 μg/30 μl dropped onto ear with AOM, 10 minutes; fluorescent microscopy of middle ear fluid
Description: Three BALB/c mice at 8-12 weeks of age were anesthetized with ketamine (100 mg/kg) and xylazine (20 mg/kg) prior to administration of bacteria. A ventral midline incision was made in the neck, and the bulla exposed after blunt dissection. The middle ear was inoculated through the bony wall with approximately 3.5 μl of a bacterial suspension (heat inactivated S. pneumoniae 10^10 CFU/ml) with a thin needle. Both the right and left ears received bacteria by bulla injection.
After 24 hours, animals received an otoscopic exam using an operating microscope. Mice were anesthetized as described above, and the tympanic membrane was inspected for the presence or absence of the following three criteria for acute otitis media (AOM): 1) middle ear effusion behind the tympanic membrane; 2) change in color of the tympanic membrane from clear to red or white (indicating inflammation and/or purulence in the middle ear); 3) change in position of the tympanic membrane from neutral to bulging or retracted.
Four ears met the criteria for AOM. FITC labeled peptide P13-R^9 (SEQ ID NO: 378) (10 μg/30 μl) was dropped onto the middle ear. The peptide was allowed to absorb for 10 minutes. After 10 minutes, the external ear canal was flushed twice, and blotted to get rid of any remaining peptide. […]

[7] = 7.1 μM peptide, CpG stimulation, 1.25 ug/ml CpG-ODN
[8] = 11.1 μM peptide, CpG stimulation, 1.25 ug/ml CpG-ODN
[9] = 22 μM peptide, CpG stimulation, 1.25 ug/ml CpG-ODN
[10] = 11.1 μM peptide, 1 ug/ml CpG-ODN, 4 hours (Table 2)
[11] = 22.2 μM peptide, 1 ug/ml CpG-ODN, 4 hours

AIIKVYVYACIRRRRRRRRR [T52-R^9]
Percent Inhibition of TNF-α secretion [1, 7]: 97.8%
Percent Inhibition of TNF-α secretion [1, 8]: 99.2%
Percent Inhibition of TNF-α secretion [1, 9]: 100%
activity vis-à-vis P13 (inhibition of TNF-α after stimulation of RAW264.7 cells with CpG) [1]: superior activity

AIVKLTVYACIRRRRRRRRR [T51-R^9]
Percent Inhibition of TNF-α secretion [1, 7]: 94%
Percent Inhibition of TNF-α secretion [1, 8]: 98%
Percent Inhibition of TNF-α secretion [1, 9]: 99.7%
activity vis-à-vis P13 (inhibition of TNF-α after stimulation of RAW264.7 cells with CpG) [1]: superior activity

AIVKLTVYDCIRRRRRRRRR [T3-R^9]
Percent Inhibition of TNF-α secretion [1, 7]: 85%
Percent Inhibition of TNF-α secretion [1, 8]: 92%
Percent Inhibition of TNF-α secretion [1, 9]: 99%
activity vis-à-vis P13 (inhibition of TNF-α after stimulation of RAW264.7 cells with CpG) [1]: superior activity
Percent Inhibition of TNF-α secretion ([2]; 7.4 uM peptide): 33%
Percent Inhibition of TNF-α secretion ([2]; 11.1 uM peptide): 65%
Percent Inhibition of TNF-α secretion ([2]; 22.2 uM peptide): 77%

DIIKLTVYDCIRRRRRRRRR [T36-R^9]
Percent Inhibition of TNF-α secretion [1, 7]: 50%
Percent Inhibition of TNF-α secretion [1, 8]: 70%
Percent Inhibition of TNF-α secretion [1, 9]: 82%
activity vis-à-vis P13 (inhibition of TNF-α after stimulation of RAW264.7 cells with CpG) [1]: superior activity

DIVKLTVYACIRRRRRRRRR [T11-R^9]
activity vis-à-vis P13 (inhibition of TNF-α after stimulation of RAW264.7 cells with CpG) [1]: superior activity
Percent Inhibition of TNF-α secretion ([2]; 7.4 uM peptide): 68%
Percent Inhibition of TNF-α secretion ([2]; 11.1 uM peptide): 81%
Percent Inhibition of TNF-α secretion ([2]; 22.2 uM peptide): 91%

DIVKLTVYDCI [Peptide P13, DIVKLTVYDCI]
difference between PBS-injected ear and P13-injected ear in cell number (mouse middle ear): no differences
difference between PBS-injected ear and P13-injected ear in fluid area (mouse middle ear): no differences
difference between PBS-injected ear and P13-injected ear in tympanic membrane thickness (mouse middle ear): no differences

DIVKLTVYDCIRRRRRRRRR [P13-R^9]
cytokine secretion in response to TLR activation [3]: effectively inhibits
bacterial-induced inflammatory response in the middle ear [4]: dramatically reduced
Percent Inhibition of TNF-α secretion [1, 7]: 32%
Percent Inhibition of TNF-α secretion [1, 8]: 65%
Percent Inhibition of TNF-α secretion [1, 9]: 86%
Percent Inhibition of TNF-α secretion ([2]; 7.4 uM peptide): 0%
Percent Inhibition of TNF-α secretion ([2]; 11.1 uM peptide): 13%
Percent Inhibition of TNF-α secretion ([2]; 22.2 uM peptide): 69%
pro-inflammatory mediators [5]: reduce pro-inflammatory mediators

DIVKLYVYDCIRRRRRRRRR [T21-R^9]
Percent Inhibition of TNF-α secretion [1, 7]: 69%
Percent Inhibition of TNF-α secretion [1, 8]: 90%
Percent Inhibition of TNF-α secretion [1, 9]: 98%
activity vis-à-vis P13 (inhibition of TNF-α after stimulation of RAW264.7 cells with CpG) [1]: superior activity

DIVKVTVYDCIRRRRRRRRR [T37-R^9]
Percent Inhibition of TNF-α secretion [1, 7]: 46%
Percent Inhibition of TNF-α secretion [1, 8]: 87%
Percent Inhibition of TNF-α secretion [1, 9]: 93%
activity vis-à-vis P13 (inhibition of TNF-α after stimulation of RAW264.7 cells with CpG) [1]: superior activity

FITC-labeled P13-R^9: FITC (Fluorescein isothiocyanate) labeled peptide P13-R^9 (SEQ ID NO: 378) (DIVKLTVYDCIRRRRRRRRR; also: FITC label)
crossing the tympanic membrane [6]: crosses the tympanic membrane and associates with cells in middle ear fluid

FTILLEEYFMYRGLLGLRIRRRRRRRRR [Peptide 103 (S19)-R^9]
Inhibition of TNF-α secretion (percent inhibition) ([1]; 7 μM peptide, 1 ug/ml CpG-ODN): 87%
Inhibition of TNF-α secretion (percent inhibition) ([1]; 11 μM peptide, 1 ug/ml CpG-ODN): 93%
Percent Inhibition of TNF-α secretion [1, 10]: 93%
Percent Inhibition of TNF-α secretion [1, 11]: 99%

ILLEEYFMYRGLLGLRIRRRRRRRRR [Peptide 105 (S21)-R^9]
Inhibition of TNF-α secretion (percent inhibition) ([1]; 7 μM peptide, 1 ug/ml CpG-ODN): 52%
Inhibition of TNF-α secretion (percent inhibition) ([1]; 11 μM peptide, 1 ug/ml CpG-ODN): 62%
Percent Inhibition of TNF-α secretion [1, 10]: 62%
Percent Inhibition of TNF-α secretion [1, 11]: 91%

LLEEYFMYGLLGLRIRRRRRRRRR [Peptide 106 (S22)-R^9]
Inhibition of TNF-α secretion (percent inhibition) ([1]; 7 μM peptide, 1 ug/ml CpG-ODN): 53%
Inhibition of TNF-α secretion (percent inhibition) ([1]; 11 μM peptide, 1 ug/ml CpG-ODN): 70%
Percent Inhibition of TNF-α secretion [1, 10]: 70%
Percent Inhibition of TNF-α secretion [1, 11]: 92%

TILLEEYFMYRGLLGLRIRRRRRRRRR [Peptide 104 (S20)-R^9]
Inhibition of TNF-α secretion (percent inhibition) ([1]; 7 μM peptide, 1 ug/ml CpG-ODN): 60%
Inhibition of TNF-α secretion (percent inhibition) ([1]; 11 μM peptide, 1 ug/ml CpG-ODN): 74%
Percent Inhibition of TNF-α secretion [1, 10]: 74%
Percent Inhibition of TNF-α secretion [1, 11]: 93%
